According to doi:10.1101/350942v2 (biorxiv, 2018):

Molecular target: Tv2483 (Treponema vincentii, UniProt S3MDF0, R115A)
Assay: biochemical

SMILES: N=C(N)NCCC[C@H](N)C(=O)O [L-arginine]
- Kd: 6.3 µM
